Experimental data: article PMC9019507, “OAT10/SLC22A13 Acts as a Renal Urate Re-Absorber: Clinico-Genetic and Functional Analyses With Pharmacological Impacts” (Frontiers in Pharmacology, 2022)

Columns and labels:
[1] = molecular target: T1, OAT10/SLC22A13 (Homo sapiens, UniProt Q9Y226); assay: concentration-dependent inhibition of [[…]-14C]-urate uptake in OAT10-expressing […] cells; assay type: cell-based
[2] = molecular target: T2, URAT1/SLC22A12 (Homo sapiens, UniProt Q96S37); assay: inhibition of [[…]-14C]-urate uptake in URAT1-expressing […] cells ([…]); assay type: cell-based
T2 construct: full-length human URAT1 wild-type, EGFP-fused (pEGFP-C1)
T2 sequence (Q96S37 1-553): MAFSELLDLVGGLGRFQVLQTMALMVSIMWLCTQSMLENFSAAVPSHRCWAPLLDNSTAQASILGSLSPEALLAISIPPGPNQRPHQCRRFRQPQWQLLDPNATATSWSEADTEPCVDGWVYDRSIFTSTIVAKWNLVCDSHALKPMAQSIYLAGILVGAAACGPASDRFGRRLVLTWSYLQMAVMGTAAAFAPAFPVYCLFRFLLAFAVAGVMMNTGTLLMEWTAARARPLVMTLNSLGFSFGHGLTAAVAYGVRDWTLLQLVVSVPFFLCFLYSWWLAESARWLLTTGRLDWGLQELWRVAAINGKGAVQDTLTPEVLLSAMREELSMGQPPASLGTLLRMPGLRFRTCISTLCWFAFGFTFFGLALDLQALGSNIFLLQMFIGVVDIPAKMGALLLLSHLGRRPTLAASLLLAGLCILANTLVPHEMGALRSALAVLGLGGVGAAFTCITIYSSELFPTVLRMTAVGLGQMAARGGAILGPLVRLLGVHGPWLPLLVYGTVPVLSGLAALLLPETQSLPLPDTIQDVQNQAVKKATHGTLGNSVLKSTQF

[3] = molecular target: T1, OAT10/SLC22A13; assay: inhibition of [[…]-14C]-urate uptake in OAT10-expressing […] cells; assay type: cell-based
[4] = molecular target: T2, URAT1/SLC22A12; assay: inhibition of [[…]-14C]-urate uptake in URAT1-expressing […] cells; assay type: cell-based
[5] = molecular target: T1, OAT10/SLC22A13; assay: cell-based; set-up: full-length human OAT10 wild-type, EGFP-fused (pEGFP-N1); species or system 293A
Method: Calculation of the Half-Maximal Inhibitory Concentration Values  FIGURE 5 Effects of urate-lowering drugs and their reactive metabolites on the urate transport activity of OAT10. (A) OAT10-mediated urate transport activities in the presence or absence of urate-lowering drugs, including their reactive metabolites, at 100 μM or experimentally maximum concentrations (Table 2). AP, allopurinol; OP, oxypurinol; FEB, febuxostat; TOP, topiroxostat; BBR, benzbromarone; 6-OH BBR, 6-hydroxybenzbromarone; DU, dotinurad; LU, lesinurad; PB, probenecid; FF, fenofibrate; LOS, losartan. (B) Comparison of the effects of each compound (10 μM) on the urate transport activities of URAT1 and OAT10. Values are shown as % of vehicle control (only 0.1% dimethyl sulfoxide); data are expressed as the mean ± SD; n = 3–4 (A,B). ^†† p < 0.01 (two-sided t-test). […] The urate transport activities were measured in the presence of each compound at indicated concentrations for 1 min.

[6] = molecular target: T2, URAT1/SLC22A12; assay: cell-based; set-up: species or system 293A; inhibition of [8-14C]-urate uptake by URAT1-expressing 293A cells, concentration-response
Method: Transiently URAT1-expressing 293A cells were subjected to a cell-based urate transport assay, 48 h after transfection. As a transport buffer, Ringer solution, which contains Cl−, or Cl−-free Hanks’ Balanced Salt Solution (HBSS) containing 10 μM [8-14C]-urate was used. […] Data are expressed as the mean ± SD; n = 4.

T1 sequence (Q9Y226 whole entry): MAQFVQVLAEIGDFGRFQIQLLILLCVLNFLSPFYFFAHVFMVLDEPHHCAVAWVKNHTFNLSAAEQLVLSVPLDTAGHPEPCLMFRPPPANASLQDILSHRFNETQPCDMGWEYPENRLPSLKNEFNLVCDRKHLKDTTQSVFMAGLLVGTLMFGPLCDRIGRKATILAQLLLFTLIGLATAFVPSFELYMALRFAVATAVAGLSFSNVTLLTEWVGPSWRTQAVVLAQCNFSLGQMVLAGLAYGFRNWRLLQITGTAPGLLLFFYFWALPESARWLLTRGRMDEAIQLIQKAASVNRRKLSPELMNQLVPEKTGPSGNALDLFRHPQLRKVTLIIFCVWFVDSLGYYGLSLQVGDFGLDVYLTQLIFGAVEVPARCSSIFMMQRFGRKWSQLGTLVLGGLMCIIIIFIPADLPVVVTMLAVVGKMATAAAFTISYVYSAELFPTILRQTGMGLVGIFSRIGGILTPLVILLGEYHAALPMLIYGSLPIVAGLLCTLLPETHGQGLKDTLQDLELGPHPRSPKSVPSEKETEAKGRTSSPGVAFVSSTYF

Row | SMILES | IC50 [1] | inhibition of [8-14C]-urate uptake in URAT1-expressing 293A cells (10 μM) [2] | IC50 [3] [µM] | IC50 [4] [µM] | IC50 [5] [µM] | IC50 [6] [µM]
1 | O=C(O)CSc1nnc(Br)n1-c1ccc(C2CC2)c2ccccc12 [LU, lesinurad] | lesinurad inhibited OAT10 and URAT1 comparably | lesinurad inhibited OAT10 and URAT1 comparably |  |  |  | 
2 | CCCCc1nc(Cl)c(CO)n1Cc1ccc(-c2ccccc2-c2nn[nH]n2)cc1 [LOS, losartan] |  |  | 2.5 | 11.9 |  | 
3 | O=C(c1cc(Cl)c(O)c(Cl)c1)N1CS(=O)(=O)c2ccccc21 [DU, dotinurad] |  | benzbromarone, 6-hydroxybenzbromarone, and dotinurad were more specific to URAT1 than OAT10 |  |  | 7.7 | 0.043
